From PubChem BioAssay (NCI) come the findings set out here.

Values joined by “and” are separate entries in the source; they are usually repeats but may differ in a detail not shown here. Equal entries are not always repeated.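 Test compounds were applied to cells in 96-well plates for 48 hours at 5 doses. The concentration for 50% growth inhibition is given as GI50. TGI marks complete inhibition of growth.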

Some test systems named below: LOX IMVI melanoma; LXFL 529 NSCLC; 786-0 renal; U251 CNS; SK-OV-3 ovarian; CCRF-CEM leukemia; MOLT-4 leukemia; DMS 273 small cell lung; SNB-78 CNS; PC-3 prostate; DU-145 prostate.
Assay in all cases: DTP human tumour cell line panel, 48 h

For `O=C(O)C(CS)NCc1c2ccccc2nc2ccccc12` (configuration not stated), the TGI in the experiment on LOX IMVI melanoma is > 100 µM; in the experiment with LXFL 529 NSCLC, > 100 µM; in the experiment with 786-0 renal, > 100 µM; with U251 CNS it was > 100 µM; in the experiment on SK-OV-3 ovarian, > 100 µM; with CCRF-CEM leukemia, 74.6 µM. The TGI is > 100 µM in the experiment on MOLT-4 leukemia and 91.3 µM in the experiment on DMS 273 small cell lung.
Regarding `COc1ccc(COC2CC(OC)OC(C)C2OC(=O)c2ccccc2)cc1` (configuration not stated), the TGI with SNB-78 CNS was > 100 µM; with LOX IMVI melanoma, 67.9 µM; in the experiment on LXFL 529 NSCLC it was > 81.8 µM; with 786-0 renal it was > 100 µM; with U251 CNS, > 100 µM; with SK-OV-3 ovarian, > 100 µM. The TGI with CCRF-CEM leukemia is > 100 µM; in the experiment with MOLT-4 leukemia it was 40.1 µM; in the experiment with DMS 273 small cell lung, > 100 µM.
`O=C1/C(=N\O)S(=O)(=O)c2ccccc21`: the TGI in the experiment on SNB-78 CNS, in the experiment with LOX IMVI melanoma, in the experiment with LXFL 529 NSCLC, with 786-0 renal, in the experiment with U251 CNS and in the experiment with SK-OV-3 ovarian was > 100 µM in each case. For the same compound, the TGI with CCRF-CEM leukemia, in the experiment on MOLT-4 leukemia and in the experiment with DMS 273 small cell lung was > 100 µM each time.
For the compound `CC(=O)[CH-]C(=O)c1ccccc1.CC(=O)[CH-]C(=O)c1ccccc1.CC(=O)[CH-]C(=O)c1ccccc1.[In+3]`, the GI50 in the experiment with LOX IMVI melanoma was 11 µM; in the experiment with LXFL 529 NSCLC, 25.5 µM; in the experiment with 786-0 renal it was 61.5 µM; in the experiment on U251 CNS, 22.8 µM; in the experiment on SK-OV-3 ovarian, 29.2 µM; with CCRF-CEM leukemia, 11.6 µM. In addition, the TGI with LOX IMVI melanoma was > 100 µM; in the experiment with LXFL 529 NSCLC, > 100 µM; in the experiment on 786-0 renal, > 100 µM; in the experiment on U251 CNS it was > 100 µM; in the experiment on SK-OV-3 ovarian, 70.9 µM; with CCRF-CEM leukemia, 49.4 µM.
Consider `O=c1c(O)c(-c2ccc(O)c(O)c2)oc2cc(O)cc(O)c12`, for which the TGI with SNB-78 CNS was > 100 µM; with LOX IMVI melanoma, > 84.1 µM and 35.9 µM; in the experiment on LXFL 529 NSCLC it was > 100 µM; with PC-3 prostate it was > 100 µM; in the experiment on DU-145 prostate, > 100 µM; in the experiment on 786-0 renal, > 100 µM. The concentration for total growth inhibition (TGI) was > 100 µM in the experiment with U251 CNS; 68.5 µM and > 100 µM with SK-OV-3 ovarian; > 100 µM and 87.7 µM in the experiment with CCRF-CEM leukemia; > 100 µM in the experiment with MOLT-4 leukemia; > 100 µM with DMS 273 small cell lung. For the same compound, the GI50 in the experiment on LOX IMVI melanoma was 11.4 µM; in the experiment with PC-3 prostate, 18.7 µM; in the experiment with DU-145 prostate it was 20 µM; in the experiment on 786-0 renal, 21.9 µM; in the experiment on U251 CNS, 8.68 µM; in the experiment with SK-OV-3 ovarian, 18.3 µM. For the same compound, the GI50 in the experiment on CCRF-CEM leukemia is 10.7 µM; in the experiment with MOLT-4 leukemia, 13 µM.
Consider `C[C@]12CCC(=O)CC1CCCC2=O` (some centres not stated), for which the TGI with SNB-78 CNS, with LOX IMVI melanoma, with LXFL 529 NSCLC, with 786-0 renal, with U251 CNS and with SK-OV-3 ovarian was > 100 µM in each case. The total growth inhibition concentration (TGI) in the experiment on CCRF-CEM leukemia, in the experiment with MOLT-4 leukemia and in the experiment on DMS 273 small cell lung was > 100 µM throughout.
In the case of `O=C(NC(=Nc1ccccc1)SCCSC(=Nc1ccccc1)NC(=O)c1cccs1)c1cccs1`, the TGI in the experiment on LOX IMVI melanoma, in the experiment on LXFL 529 NSCLC, in the experiment on 786-0 renal, in the experiment with U251 CNS, in the experiment with CCRF-CEM leukemia and with MOLT-4 leukemia was > 100 µM each time. In addition, the TGI in the experiment with DMS 273 small cell lung is > 100 µM.
For `CC1(C)CC2CC(CC(C)(C)C2=O)C1=O`, the TGI with SNB-78 CNS, in the experiment with LOX IMVI melanoma, in the experiment on LXFL 529 NSCLC, in the experiment on 786-0 renal, in the experiment with U251 CNS and in the experiment on SK-OV-3 ovarian was > 100 µM each time. Moreover, the TGI in the experiment with CCRF-CEM leukemia, in the experiment on MOLT-4 leukemia and in the experiment on DMS 273 small cell lung was > 100 µM each time.
`COc1cccc(NC(=O)CC(=O)N2N=C(N3c4ccccc4Sc4ccccc43)CC2c2ccccc2)c1` (configuration not stated): the TGI in the experiment with SNB-78 CNS, in the experiment with LOX IMVI melanoma, in the experiment with LXFL 529 NSCLC, with 786-0 renal, in the experiment with U251 CNS and in the experiment on SK-OV-3 ovarian was > 100 µM each time. The TGI with MOLT-4 leukemia was > 100 µM.
`CCOC(=O)/C(O)=C(/C(=O)OC)c1ccc(Cl)cc1`: the TGI in the experiment with SNB-78 CNS, in the experiment on LOX IMVI melanoma, in the experiment on LXFL 529 NSCLC, with 786-0 renal, with U251 CNS and in the experiment on SK-OV-3 ovarian was > 100 µM in each case. The TGI with CCRF-CEM leukemia, with MOLT-4 leukemia and in the experiment with DMS 273 small cell lung was > 100 µM throughout.
With `CN(C)C(=O)c1ccc([N+](=O)[O-])cc1`, the TGI with SNB-78 CNS, with LOX IMVI melanoma, in the experiment with LXFL 529 NSCLC, in the experiment with 786-0 renal, in the experiment with U251 CNS and in the experiment on SK-OV-3 ovarian was > 100 µM in each case. Further, the TGI in the experiment on CCRF-CEM leukemia, in the experiment with MOLT-4 leukemia and with DMS 273 small cell lung was > 100 µM in each case.
